Which solubility (mole fraction) (in acetone, 283.15 K) does the source give for `NC(=O)c1cccnc1` here?
The solubility (mole fraction) was 0.0116.

And the solubility (mole fraction) (in acetone, 288.15 K)?
Its solubility (mole fraction) is 0.0134.

And the solubility (mole fraction) (in acetone, 293.15 K)?
The solubility (mole fraction) was 0.0164.

And the solubility (mole fraction) (in acetone, 298.15 K)?
The solubility (mole fraction) was 0.0191.

What about the solubility (mole fraction) (in acetone, 303.15 K) of the same molecule?
Its solubility (mole fraction) is 0.0234.

What about the solubility (mole fraction) (in acetone, 308.15 K) of the same molecule?
The solubility (mole fraction) was 0.0286.

What about the solubility (mole fraction) (in acetone, 313.15 K) of the same molecule?
The solubility (mole fraction) was 0.0342.

What about the solubility (mole fraction) (in acetone, 318.15 K) of the same molecule?
Its solubility (mole fraction) is 0.0392.

What about the solubility (mole fraction) (in acetone, 323.15 K) of the same molecule?
The solubility (mole fraction) was 0.0472.

And the solubility (mole fraction) (in ethanol, 283.15 K)?
Its solubility (mole fraction) is 0.0263.

What about the solubility (mole fraction) (in ethanol, 288.15 K) of the same molecule?
The solubility (mole fraction) was 0.032.

And the solubility (mole fraction) (in ethanol, 293.15 K)?
The solubility (mole fraction) was 0.0374.

And the solubility (mole fraction) (in ethanol, 298.15 K)?
Its solubility (mole fraction) is 0.0444.

And the solubility (mole fraction) (in ethanol, 303.15 K)?
Its solubility (mole fraction) is 0.0537.

What about the solubility (mole fraction) (in ethanol, 308.15 K) of the same molecule?
Its solubility (mole fraction) is 0.0638.

What about the solubility (mole fraction) (in ethanol, 313.15 K) of the same molecule?
Its solubility (mole fraction) is 0.0766.

What about the solubility (mole fraction) (in ethanol, 318.15 K) of the same molecule?
Its solubility (mole fraction) is 0.0912.

What about the solubility (mole fraction) (in ethanol, 323.15 K) of the same molecule?
The solubility (mole fraction) was 0.11.

What about the solubility (mole fraction) (in ethyl acetate, 283.15 K) of the same molecule?
The solubility (mole fraction) was 0.00797.

And the solubility (mole fraction) (in ethyl acetate, 288.15 K)?
The solubility (mole fraction) was 0.00871.

What about the solubility (mole fraction) (in ethyl acetate, 293.15 K) of the same molecule?
Its solubility (mole fraction) is 0.01.

And the solubility (mole fraction) (in ethyl acetate, 298.15 K)?
Its solubility (mole fraction) is 0.0112.

What about the solubility (mole fraction) (in ethyl acetate, 303.15 K) of the same molecule?
The solubility (mole fraction) was 0.0129.

And the solubility (mole fraction) (in ethyl acetate, 308.15 K)?
Its solubility (mole fraction) is 0.0145.

And the solubility (mole fraction) (in ethyl acetate, 313.15 K)?
The solubility (mole fraction) was 0.0163.

What about the solubility (mole fraction) (in ethyl acetate, 318.15 K) of the same molecule?
The solubility (mole fraction) was 0.0182.

And the solubility (mole fraction) (in ethyl acetate, 323.15 K)?
The solubility (mole fraction) was 0.0213.

And the solubility (mole fraction) (in isobutanol, 283.15 K)?
Its solubility (mole fraction) is 0.0222.

What about the solubility (mole fraction) (in isobutanol, 288.15 K) of the same molecule?
Its solubility (mole fraction) is 0.0248.

And the solubility (mole fraction) (in isobutanol, 293.15 K)?
The solubility (mole fraction) was 0.0292.

What about the solubility (mole fraction) (in isobutanol, 298.15 K) of the same molecule?
Its solubility (mole fraction) is 0.0345.

What about the solubility (mole fraction) (in isobutanol, 303.15 K) of the same molecule?
The solubility (mole fraction) was 0.0392.

What about the solubility (mole fraction) (in isobutanol, 308.15 K) of the same molecule?
The solubility (mole fraction) was 0.0456.

And the solubility (mole fraction) (in isobutanol, 313.15 K)?
Its solubility (mole fraction) is 0.0544.

What about the solubility (mole fraction) (in isobutanol, 318.15 K) of the same molecule?
The solubility (mole fraction) was 0.0637.

What about the solubility (mole fraction) (in isobutanol, 323.15 K) of the same molecule?
The solubility (mole fraction) was 0.0754.

What about the solubility (mole fraction) (in isopropanol, 283.15 K) of the same molecule?
The solubility (mole fraction) was 0.0187.

What about the solubility (mole fraction) (in isopropanol, 288.15 K) of the same molecule?
Its solubility (mole fraction) is 0.023.

And the solubility (mole fraction) (in isopropanol, 293.15 K)?
The solubility (mole fraction) was 0.0281.

What about the solubility (mole fraction) (in isopropanol, 298.15 K) of the same molecule?
Its solubility (mole fraction) is 0.0328.

What about the solubility (mole fraction) (in isopropanol, 303.15 K) of the same molecule?
Its solubility (mole fraction) is 0.0396.

And the solubility (mole fraction) (in isopropanol, 308.15 K)?
The solubility (mole fraction) was 0.048.

And the solubility (mole fraction) (in isopropanol, 313.15 K)?
The solubility (mole fraction) was 0.0573.

And the solubility (mole fraction) (in isopropanol, 318.15 K)?
The solubility (mole fraction) was 0.0673.

And the solubility (mole fraction) (in isopropanol, 323.15 K)?
The solubility (mole fraction) was 0.0801.

And the solubility (mole fraction) (in methanol, 283.15 K)?
The solubility (mole fraction) was 0.0541.

And the solubility (mole fraction) (in methanol, 288.15 K)?
Its solubility (mole fraction) is 0.0643.

What about the solubility (mole fraction) (in methanol, 293.15 K) of the same molecule?
The solubility (mole fraction) was 0.0748.

What about the solubility (mole fraction) (in methanol, 298.15 K) of the same molecule?
The solubility (mole fraction) was 0.0876.

And the solubility (mole fraction) (in methanol, 303.15 K)?
Its solubility (mole fraction) is 0.102.

What about the solubility (mole fraction) (in methanol, 308.15 K) of the same molecule?
The solubility (mole fraction) was 0.121.

What about the solubility (mole fraction) (in methanol, 313.15 K) of the same molecule?
Its solubility (mole fraction) is 0.141.

What about the solubility (mole fraction) (in methanol, 318.15 K) of the same molecule?
The solubility (mole fraction) was 0.166.

And the solubility (mole fraction) (in methanol, 323.15 K)?
The solubility (mole fraction) was 0.192.

What about the solubility (mole fraction) (in methyl acetate, 283.15 K) of the same molecule?
The solubility (mole fraction) was 0.00929.

What about the solubility (mole fraction) (in methyl acetate, 288.15 K) of the same molecule?
The solubility (mole fraction) was 0.0101.

What about the solubility (mole fraction) (in methyl acetate, 293.15 K) of the same molecule?
The solubility (mole fraction) was 0.0117.

What about the solubility (mole fraction) (in methyl acetate, 298.15 K) of the same molecule?
The solubility (mole fraction) was 0.0135.

What about the solubility (mole fraction) (in methyl acetate, 303.15 K) of the same molecule?
The solubility (mole fraction) was 0.0156.

What about the solubility (mole fraction) (in methyl acetate, 308.15 K) of the same molecule?
Its solubility (mole fraction) is 0.0179.

What about the solubility (mole fraction) (in methyl acetate, 313.15 K) of the same molecule?
Its solubility (mole fraction) is 0.0209.

And the solubility (mole fraction) (in methyl acetate, 318.15 K)?
Its solubility (mole fraction) is 0.0235.

What about the solubility (mole fraction) (in methyl acetate, 323.15 K) of the same molecule?
Its solubility (mole fraction) is 0.0272.

And the solubility (mole fraction) (in n-butanol, 283.15 K)?
Its solubility (mole fraction) is 0.0235.

And the solubility (mole fraction) (in n-butanol, 288.15 K)?
Its solubility (mole fraction) is 0.0274.

And the solubility (mole fraction) (in n-butanol, 293.15 K)?
The solubility (mole fraction) was 0.0315.

What about the solubility (mole fraction) (in n-butanol, 298.15 K) of the same molecule?
Its solubility (mole fraction) is 0.0362.

What about the solubility (mole fraction) (in n-butanol, 303.15 K) of the same molecule?
Its solubility (mole fraction) is 0.0416.

And the solubility (mole fraction) (in n-butanol, 308.15 K)?
The solubility (mole fraction) was 0.0482.

What about the solubility (mole fraction) (in n-butanol, 313.15 K) of the same molecule?
Its solubility (mole fraction) is 0.0566.

And the solubility (mole fraction) (in n-butanol, 318.15 K)?
The solubility (mole fraction) was 0.0664.

And the solubility (mole fraction) (in n-butanol, 323.15 K)?
Its solubility (mole fraction) is 0.0774.

And the solubility (mole fraction) (in n-butyl acetate, 283.15 K)?
The solubility (mole fraction) was 0.00936.

And the solubility (mole fraction) (in n-butyl acetate, 288.15 K)?
Its solubility (mole fraction) is 0.00955.

And the solubility (mole fraction) (in n-butyl acetate, 293.15 K)?
Its solubility (mole fraction) is 0.01.

What about the solubility (mole fraction) (in n-butyl acetate, 298.15 K) of the same molecule?
The solubility (mole fraction) was 0.0107.

What about the solubility (mole fraction) (in n-butyl acetate, 303.15 K) of the same molecule?
The solubility (mole fraction) was 0.0114.

And the solubility (mole fraction) (in n-butyl acetate, 308.15 K)?
Its solubility (mole fraction) is 0.0124.

And the solubility (mole fraction) (in n-butyl acetate, 313.15 K)?
Its solubility (mole fraction) is 0.0135.

And the solubility (mole fraction) (in n-butyl acetate, 318.15 K)?
The solubility (mole fraction) was 0.0153.

What about the solubility (mole fraction) (in n-butyl acetate, 323.15 K) of the same molecule?
Its solubility (mole fraction) is 0.0181.

What about the solubility (mole fraction) (in n-propanol, 283.15 K) of the same molecule?
Its solubility (mole fraction) is 0.0219.

And the solubility (mole fraction) (in n-propanol, 288.15 K)?
The solubility (mole fraction) was 0.0266.

What about the solubility (mole fraction) (in n-propanol, 293.15 K) of the same molecule?
The solubility (mole fraction) was 0.0321.

What about the solubility (mole fraction) (in n-propanol, 298.15 K) of the same molecule?
The solubility (mole fraction) was 0.0378.

What about the solubility (mole fraction) (in n-propanol, 303.15 K) of the same molecule?
Its solubility (mole fraction) is 0.045.

What about the solubility (mole fraction) (in n-propanol, 308.15 K) of the same molecule?
Its solubility (mole fraction) is 0.0542.

What about the solubility (mole fraction) (in n-propanol, 313.15 K) of the same molecule?
Its solubility (mole fraction) is 0.0647.

What about the solubility (mole fraction) (in n-propanol, 318.15 K) of the same molecule?
The solubility (mole fraction) was 0.0766.

What about the solubility (mole fraction) (in n-propanol, 323.15 K) of the same molecule?
Its solubility (mole fraction) is 0.0924.
